Results as given in US20060049177A1, “Induction heating cooker” (LG Electronics Inc., priority 2004, published 2006).
Read-outs that look alike come from different tables or passages of the source.

Tests used:
MT-4 cells = assay: cytotoxicity in mock-infected MT-4 cells (MTT)
Procedure: (§1) A rapid, sensitive and automated assay procedure was used for the in vitro evaluation of anti-HIV agents. An […] T4-cell line, MT-4, which was previously shown (Koyanagi et al., Int. J. Cancer, 36, 445-451, 1985) to be highly susceptible to and permissive for HIV infection, served as the target cell line. Inhibition of the HIV-induced cytopathic effect was used as the end point. The viability of both HIV- and mock-infected cells was assessed spectrophotometrically via the in situ reduction of 3-(4,5-dimethylthiazol-2-yl)-2,5-diphenyltetrazolium bromide (MTT). The 50% […], cytotoxic concentration (CC50 in μM) was defined as the concentration of compound that reduced the absorbance of the mock-infected control sample by 50%. The percent protection achieved by the compound in HIV-infected cells was calculated by the following formula: [formula]
(§2) whereby (ODT)HIV is the optical density measured with a given concentration of the test compound in HIV-infected cells; (ODC)HIV is the optical density measured for the control untreated HIV-infected cells; (ODC)MOCK is the optical density measured for the control untreated mock-infected cells; all optical density values were determined at 540 nm. The dose achieving 50% protection according to the above formula was defined as the 50% inhibitory concentration (IC50 in μM). The ratio of CC50 to IC50 was defined as the selectivity index (SI).

HIV-1 = assay: in vitro anti-HIV assay: inhibition of HIV-induced cytopathic effect in MT-4 cells (MTT); type: cell-based; conditions: for SI: selectivity index = ratio of CC50 to IC50
Procedure: as §1, §2

[1] = HIV-infected MT-4 cells, dose achieving 50% protection against cytopathic effect, MTT, OD 540 nm, mean value, read-out: IC50
[2] = Human immunodeficiency virus 1, MT4, HIV-infected MT-4 cells, dose achieving 50% protection against cytopathic effect, MTT, OD 540 nm, mean value, read-out: IC50

| Molecule | CC50 (MT-4 cells) | IC50 (HIV-1; [1]) | SI (HIV-1) | IC50 (HIV-1; Human immunodeficiency virus 1, MT4) | IC50 (HIV-1; [2]) |
| --- | --- | --- | --- | --- | --- |
| COc1ccc(C(C)=O)cc1Cc1nc(N)nc(Nc2ccc(C#N)cc2)n1 [Compound 60] | 71.4 µM | 0.039 µM | 1841 | – | – |
| CCOC(=O)Nc1nc(Cc2c(Cl)cccc2Cl)nc(Nc2ccc(C#N)cc2)n1 [Compound 37] | 85 µM | 0.011 µM | 7948 | – | – |
| Cl.N#Cc1ccc(Nc2nc(Cc3c(Cl)cccc3Cl)nc(NO)n2)cc1.O [Compound 21, 4-[[4-[(2,6-dichlorophenyl)methyl]-6-(hydroxyamino)-1,3,5-triazin-2-yl]amino]benzonitrile monohydrochloride.monohydrate] | 8.9 µM | 0.002 µM | 4924 | – | – |
| COc1cccc(Cc2nc(N)nc(Nc3ccc(C#N)cc3)n2)c1OC [Compound 50] | > 20 µM | 0.079 µM | >252 | – | – |
| Nc1nc(Cc2c(Cl)cccc2Cl)nc(Nc2ccc(Cl)cc2)n1 [Compound 5] | 47.5 µM | 0.017 µM | 2793 | – | – |
| N#Cc1cccc(Nc2nc(N)nc(Cc3c(Cl)cccc3Cl)n2)c1 [Compound 4] | 53.6 µM | 0.24 µM | 224 | – | – |
| N#Cc1ccc(Nc2nc(N)nc(Cc3c(Cl)ccc4[nH]ccc34)n2)cc1 [Compound 8, 4-[[4-amino-6-[(5-chloro-1H-indol-4-yl)methyl]-1,3,5-triazin-2-yl]amino]benzonitrile] | – | – | 4806 | 0.3 µM | – |
| (±)-2-[[4-[(4-cyanophenyl)amino]-6-[(2,6-dichlorophenyl)amino]-6-[(2,6-dichloro-phenyl)methyl]-1,3,5-triazin-2-yl]amino-4-hydroxybutanamide [Compound 34] | 42.3 µM | 0.057 µM | 746 | – | – |
| Cc1ccc(C)c(Cc2nc(N)nc(Nc3ccc(C#N)cc3)n2)c1 [Compound 57] | 36.8 µM | 0.003 µM | 11883 | – | – |
| N#Cc1ccc(Nc2nc(Cc3c(Cl)cccc3Cl)nc(NCCOCCO)n2)cc1 [Compound 27] | 46.8 µM | 0.056 µM | 837 | – | – |
| N#Cc1ccc(Nc2nc(Cc3c(Cl)cccc3Cl)nc(NO)n2)cc1 [Compound 33, 4-[[4-[(2,6-dichlorophenyl)methyl]-6-(hydroxyamino)-1,3,5-triazin-2-yl]amino]benzonitrile] | – | – | 6272 | – | 0.002 µM |
| N#Cc1ccc(Nc2nc(Cc3c(Cl)cccc3Cl)nc(NC3CCOC3=O)n2)cc1 (centres unmarked) [Compound 32] | 83.4 µM | 2 µM | 42 | – | – |
| N#Cc1ccc(Nc2nc(N)nc(Cc3cc(F)cc(F)c3)n2)cc1 [Compound 59] | > 100 µM | 0.42 µM | >241 | – | – |
| N#Cc1ccc(Nc2nc(Cc3c(Cl)cccc3Cl)nc(NCCCNC(N)=O)n2)cc1 [Compound 23, N-[3-[[4-[(4-cyanophenyl)amino]-6-[(2,6-dichlorophenyl)methyl]-1,3,5-triazin-2-yl]amino]propyl]urea] | – | – | 106 | – | 0.34 µM |
| N#Cc1ccc(Nc2nc(Cc3c(Cl)cccc3Cl)nc(NCC(N)=O)n2)cc1 [Compound 14, [N-[4-[(4-cyano-phenyl)amino]-6-[(2,6-dichlorophenyl)methyl]-1,3,5-triazin-2-yl]]aminoacetamide] | – | – | 293 | – | 0.031 µM |
| N#Cc1ccc(Nc2nc(Cc3c(Cl)cccc3Cl)nc(Nc3ccc(C#N)cc3)n2)cc1 [Compound 11, N,N′-[6-[(2,6-dichlorophenyl)methyl]1,3,5-triazin-2,4-diyl]bis[4-aminobenzonitrile]] | 6 µM | > 10.4 µM | <1 | – | – |
| CCOC(=O)CC[C@H](Nc1nc(Cc2c(Cl)cccc2Cl)nc(Nc2ccc(C#N)cc2)n1)C(=O)OCC [Compound 17] | > 20 µM | 4.3 µM | >4 | – | – |
| CN(C)C=Nc1nc(Cc2c(Cl)cccc2Cl)nc(Nc2ccc(C#N)cc2)n1 [Compound 62, 4-[[4-[(2,6-dichlorophenyl)methyl]-6-[[(dimethylamino)methylene]amino]-1,3,5-triazin-2-yl]amino]benzonitrile] | – | – | >41666 | – | 0.002 µM |
| COc1cc(Cc2nc(N)nc(Nc3ccc(C#N)cc3)n2)cc(OC)c1 [Compound 53] | > 20 µM | 0.41 µM | >48 | – | – |
| CN(C)CCCNc1nc(Cc2c(Cl)cccc2Cl)nc(Nc2ccc(C#N)cc2)n1 [Compound 31] | 9.6 µM | 0.019 µM | 506 | – | – |
| N#Cc1ccc(Nc2nc(N)nc(Cc3c(Cl)cccc3Cl)n2)cc1 [Compound 1, 4-[[4-amino-6-[(2,6-dichlorophenyl)methyl]-1,3,5-triazin-2-yl]amino]benzonitrile] | – | – | >42553 | – | 0.002 µM |
| CN(C)c1nc(Cc2c(Cl)cccc2Cl)nc(N(c2ccc(C#N)cc2)c2ccc(C#N)cc2)n1 [Compound 38, 4,4′-[[4-[(2,6-dichlorophenyl)methyl]-6-(dimethylamino)-1,3,5-triazin-2-yl]imino]bisbenzonitrile] | – | – | – | – | > 100 µM |

| Molecule | CC50 (MT-4 cells) | IC50 (HIV-1; [1]) | SI (HIV-1) | IC50 (HIV-1; Human immunodeficiency virus 1, MT4) | IC50 (HIV-1; [2]) |
| --- | --- | --- | --- | --- | --- |
| N#Cc1ccc(Nc2nc(Cc3c(Cl)cccc3Cl)nc(NN)n2)cc1 [Compound 15, 4-[[4-[(2,6-dichlorophenyl)methyl]-6-hydrazino-1,3,5-triazin-2yl]amino]benzonitrile] | – | – | 732 | – | 0.061 µM |
| N#Cc1ccc(Nc2nc(N)nc(Cc3ccccc3)n2)cc1 [Compound 2] | > 100 µM | 0.29 µM | >350 | – | – |
| Cc1cc(C)c(C)c(Cc2nc(N)nc(Nc3ccc(C#N)cc3)n2)c1C [Compound 54] | 43.8 µM | 0.005 µM | 9515 | – | – |
| CCOC(=O)N(C(=O)OCC)c1nc(Cc2c(Cl)cccc2Cl)nc(N(C(=O)OCC)c2ccc(C#N)cc2)n1 [Compound 41] | 40.2 µM | 0.013 µM | 3125 | – | – |
| N#Cc1ccc(Nc2nc(N)nc(Cc3c(F)cccc3C(F)(F)F)n2)cc1 [Compound 58] | 20 µM | 0.014 µM | 1418 | – | – |
| N#Cc1ccc(Nc2nc(N)nc(Cc3c(F)ccc(F)c3F)n2)cc1 [Compound 52] | – | 0.003 µM | >220 | – | – |
| N#Cc1ccc(Nc2nc(N)nc(Cc3cccc(OC(F)(F)F)c3)n2)cc1 [Compound 45] | > 100 µM | 0.43 µM | >233 | – | – |
| N#Cc1ccc(Nc2nc(Cc3c(Cl)cccc3Cl)nc(NCCCCO)n2)cc1 [Compound 24] | 36.1 µM | 0.068 µM | 529 | – | – |
| COC(=O)CNc1nc(Cc2c(Cl)cccc2Cl)nc(Nc2ccc(C#N)cc2)n1 [Compound 13] | > 20 µM | 0.11 µM | >178 | – | – |
| Cc1ccc(C)c(Cc2nc(N)nc(Nc3ccc(C#N)cc3)n2)c1 [Compound 49] | > 20 µM | 0.091 µM | >220 | – | – |
| CN(C)c1nc(Cc2c(Cl)cccc2Cl)nc(Nc2ccc(C#N)cc2)n1 [Compound 10] | > 100 µM | 0.17 µM | >602 | – | – |
| N#Cc1ccc(Nc2nc(Cc3c(Cl)cccc3Cl)nc(NCCO)n2)cc1 [Compound 18] | > 20 µM | 0.001 µM | >2030 | – | – |
| CN(C)CCNc1nc(Cc2c(Cl)cccc2Cl)nc(Nc2ccc(C#N)cc2)n1 [Compound 29] | 8.7 µM | 0.005 µM | 1741 | – | – |
| COc1ccc(OC)c(Cc2nc(N)nc(Nc3ccc(C#N)cc3)n2)c1 [Compound 46] | > 100 µM | 0.04 µM | >2506 | – | – |
| COc1ccc(Br)cc1Cc1nc(N)nc(Nc2ccc(C#N)cc2)n1 [Compound 55] | > 20 µM | 0.052 µM | >384 | – | – |
| CCO.Cl.N#Cc1ccc(Nc2nc(N)nc(C(CC3CC3)c3c(Cl)cccc3Cl)n2)cc1 (centres unmarked) [Compound 61] | 53.4 µM | 6.9 µM | 7 | – | – |
| CCN(CC)c1nc(Cc2c(Cl)cccc2Cl)nc(Nc2ccc(C#N)cc2)n1 [Compound 12] | > 20 µM | 8.1 µM | >2 | – | – |
| N#Cc1ccc(Nc2nc(N)nc(Cc3cc(F)ccc3F)n2)cc1 [Compound 51] | > 20 µM | 0.031 µM | >640 | – | – |
| N#Cc1ccc(Nc2nc(Cc3c(Cl)cccc3Cl)nc(NC(=N)N)n2)cc1 [Compound 20, N-[4-[(4-cyanophenyl)amino]-6-[(2,6-dichlorophenyl)methyl]-1,3,5-triazin-2-yl]-guanidine] | – | – | <1 | – | > 100 µM |
| N#Cc1ccc(Nc2nc(N)nc(Cc3c(Cl)ccc(Cl)c3Cl)n2)cc1 [Compound 44] | > 100 µM | 0.003 µM | >35087 | – | – |
| CC(=O)Nc1nc(Cc2c(Cl)cccc2Cl)nc(Nc2ccc(C#N)cc2)n1 [Compound 22, N-[4-[(4-cyanophenyl)amino]-6-[(2,6-dichlorophenyl)methyl)-1,3,5-triazin-2-yl]-acetamide] | – | – | >6993 | – | 0.014 µM |
| N#Cc1ccc(Nc2nc(Cc3c(Cl)cccc3Cl)nc(NCC(=O)O)n2)cc1 [Compound 16, N-[4-[(4-cyanophenyl)-amino]-6-[(2,6-dichlorophenyl)methyl]-1,3,5-triazin-2-yl]glycine] | – | – | 28 | – | 2.8 µM |
